The source of these data is PubChem BioAssay (NCI).

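Five concentrations, 48 hours, 96-well plates. At the GI50, growth is halved. TGI: total growth inhibition.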

The experiment concerns RXF-631 renal. In words: NCI-60 cell line screen, 48 h.
`COC(=O)C1=CC(=O)C(C(=O)Nc2ccc(OC)cc2)C(c2ccccc2)O1` (configuration not stated): the TGI was > 83.6 µM. On the same count and under the same terms, then `[N-]=[N+]=Nc1ccc(S(=O)(=O)Oc2cc(OS(=O)(=O)c3ccc(N=[N+]=[N-])cc3)cc(OS(=O)(=O)c3ccc(N=[N+]=[N-])cc3)c2)cc1`, with > 100 µM; and `COc1ccc(NC(=O)CC/C(CC(=O)c2ccco2)=N/Nc2ccc([N+](=O)[O-])cc2[N+](=O)[O-])cc1`, with > 100 µM; and `CC(C)NC(=O)OCc1nnn2c1C(OC(=O)NC(C)C)CC2` (configuration not stated), with > 100 µM.

Take `COc1ccc(C(=O)O/N=C2\CCCC\C2=C/c2ccccc2)cc1`: the TGI was > 100 µM. The same measure, in the same setting: then `CCCCN(CCCC)C(=Nc1ccccc1)N(CCCC)CCCC`, with 26.2 µM. As to `N#Cc1c([N+](=O)[O-])cc(C(F)(F)F)cc1[N+](=O)[O-]`, the TGI was found to be 27.3 µM. The same measure, in the same setting: as for `CC(=O)OCC1OC(n2cc(F)c(=O)[nH]c2=O)C(OC(C)=O)C1OC(C)=O` (configuration not stated), the figure is > 100 µM.

As for `c1ccc([CH2][Sn]([CH2]c2ccccc2)([S]c2cccc3cccnc23)[S]c2cccc3cccnc23)cc1`, the GI50 is 0.225 µM and the TGI came out at 0.552 µM. For `Cc1c(C(=O)/C=C/c2ccco2)[n+](=O)c2ccccc2n1[O-]`, the TGI is > 100 µM. As for `CN1CCC(O)C(CNC23CC4CC(CC(C4)C2)C3)C1` (configuration not stated), the TGI was > 100 µM.
